From the supplement of paper PMC10627819

How the values were obtained:
S. aureus Newman [1] = assay: Bliss interaction score (quartile over a dose matrix) (fitness difference); higher = more antagonism (negative = synergy)
Procedure, shortened: (§1)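 The Bliss score takes observed fitness and subtracts the expected fitness, calculated as a product of single-drug fitness values. Those single-drug values were inferred from the combination data. Fitness is OD595 at entry into stationary phase divided by the plate's robust no-drug mean, capped at 1, and the score is summarised by quartiles across technical, biological and donor/recipient replicates.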

B. subtilis 168 = assay: as above
Procedure, shortened: as §1

S. pneumoniae D39V [2] = assay: as above
Procedure, shortened: as §1

S. aureus DSM 20231 [3] = assay: as above
Procedure, shortened: as §1

S. aureus Newman [4] = assay: fitness (endpoint OD595 vs no drug) (fraction); higher = more growth
Procedure, shortened: (§2)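 Fitness is computed from the optical density at which cultures reach stationary phase, divided by the robust mean of no-drug control wells. Any value above 1 is set to 1. Cultures started at OD595 0.01 in 384-well plates with TSB, LB Lennox or CY at 37 °C, and OD595 was read every 30 min for 14 h against a first-reading background.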

S. pneumoniae D39V [5] = assay: as above
Procedure, shortened: as §2

S. aureus DSM 20231 [6] = assay: as above
Procedure, shortened: as §2
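Wherever Bliss interaction score (quartile over a dose matrix) is given: first quartile when negative (synergy) and third quartile when positive (antagonism).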
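Wherever fitness (endpoint OD595 vs no drug) is given: OD595 on entry to stationary phase over no-drug wells; at most 1.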

CCC[C@@H]1C[C@@H](C(=O)N[C@@H]([C@H]2O[C@H](SC)[C@H](O)[C@@H](O)[C@H]2O)[C@H](C)Cl)N(C)C1 [Clindamycin] + CN[C@H](CC(C)C)C(=O)N[C@H]1C(=O)N[C@@H](CC(N)=O)C(=O)N[C@H]2C(=O)N[C@H]3C(=O)N[C@H](C(=O)N[C@H](C(=O)O)c4cc(O)cc(O)c4-c4cc3ccc4O)[C@H](O)c3ccc(c(Cl)c3)Oc3cc2cc(c3O[C@@H]2O[C@H](CO)[C@@H](O)[C@H](O)[C@H]2O[C@H]2C[C@](C)(N)[C@H](O)[C@H](C)O2)Oc2ccc(cc2Cl)[C@H]1O [Vancomycin]
Conditions | Bliss interaction score
B. subtilis 168 | 0.0503
S. aureus DSM 20231 [3] | 0.0292
S. aureus Newman [1] | 0.135
S. pneumoniae D39V [2] | 0.111

Conditions | fitness
S. aureus DSM 20231 [6], first compound 0.125 µg/mL, partner 0.1875 µg/mL | 0.0642
S. aureus DSM 20231 [6], first compound 0.125 µg/mL, partner 0.375 µg/mL | 0.0657
S. aureus DSM 20231 [6], first compound 0.125 µg/mL, partner 0.75 µg/mL | 0.0731
S. aureus Newman [4], first compound 0.0312 µg/mL, partner 0.1875 µg/mL | 0.764
S. aureus Newman [4], first compound 0.0312 µg/mL, partner 0.375 µg/mL | 0.761
S. aureus Newman [4], first compound 0.0312 µg/mL, partner 0.75 µg/mL | 0.762
S. pneumoniae D39V [5], first compound 0.0125 µg/mL, partner 0.125 µg/mL | 0.782
S. pneumoniae D39V [5], first compound 0.0125 µg/mL, partner 0.25 µg/mL | 0.702
S. pneumoniae D39V [5], first compound 0.0125 µg/mL, partner 0.5 µg/mL | 0.0792
S. pneumoniae D39V [5], first compound 0.015 µg/mL, partner 0.03125 µg/mL | 0.89
S. pneumoniae D39V [5], first compound 0.015 µg/mL, partner 0.0625 µg/mL | 0.844
S. pneumoniae D39V [5], first compound 0.015 µg/mL, partner 0.125 µg/mL | 0.63
S. pneumoniae D39V [5], first compound 0.025 µg/mL, partner 0.125 µg/mL | 0.544
S. pneumoniae D39V [5], first compound 0.025 µg/mL, partner 0.25 µg/mL | 0.47
S. pneumoniae D39V [5], first compound 0.025 µg/mL, partner 0.5 µg/mL | 0.0715
S. pneumoniae D39V [5], first compound 0.03 µg/mL, partner 0.03125 µg/mL | 0.738
S. pneumoniae D39V [5], first compound 0.03 µg/mL, partner 0.0625 µg/mL | 0.7
S. pneumoniae D39V [5], first compound 0.03 µg/mL, partner 0.125 µg/mL | 0.526
S. pneumoniae D39V [5], first compound 0.05 µg/mL, partner 0.125 µg/mL | 0.296
S. pneumoniae D39V [5], first compound 0.05 µg/mL, partner 0.25 µg/mL | 0.237
S. pneumoniae D39V [5], first compound 0.05 µg/mL, partner 0.5 µg/mL | 0.0635
S. pneumoniae D39V [5], first compound 0.06 µg/mL, partner 0.03125 µg/mL | 0.501
S. pneumoniae D39V [5], first compound 0.06 µg/mL, partner 0.0625 µg/mL | 0.47
S. pneumoniae D39V [5], first compound 0.06 µg/mL, partner 0.125 µg/mL | 0.327

CCC[C@@H]1C[C@@H](C(=O)N[C@@H]([C@H]2O[C@H](SC)[C@H](O)[C@@H](O)[C@H]2O)[C@H](C)Cl)N(C)C1 [Clindamycin] + Cn1nnc(-c2ccc(-c3ccc(N4C[C@H](CO)OC4=O)cc3F)cn2)n1 [Tedizolid]
Conditions | Bliss interaction score
B. subtilis 168 | 0.134
S. aureus DSM 20231 [3] | -0.024
S. aureus Newman [1] | -0.0925
S. pneumoniae D39V [2] | 0.115

fitness
Conditions | partner 0.03125 µg/mL | partner 0.0625 µg/mL | partner 0.125 µg/mL | partner 0.25 µg/mL | partner 0.5 µg/mL
S. aureus DSM 20231 [6], first compound 0.0312 µg/mL | – | – | – | 0.314 | –
S. aureus DSM 20231 [6], first compound 0.0625 µg/mL | – | 0.0876 | 0.0753 | 0.0709 | –
S. aureus DSM 20231 [6], first compound 0.125 µg/mL | – | 0.0391 | 0.0406 | 0.0164 | –
S. aureus Newman [4], first compound 0.125 µg/mL | – | 0.0736 | 0.0453 | 0.0444 | –
S. pneumoniae D39V [5], first compound 0.0125 µg/mL | – | – | 0.551 | 0.434 | 0.201
S. pneumoniae D39V [5], first compound 0.015 µg/mL | 0.901 | 0.918 | 0.778 | – | –
S. pneumoniae D39V [5], first compound 0.025 µg/mL | – | – | 0.375 | 0.33 | 0.149
S. pneumoniae D39V [5], first compound 0.03 µg/mL | 0.781 | 0.814 | 0.721 | – | –
S. pneumoniae D39V [5], first compound 0.05 µg/mL | – | – | 0.224 | 0.166 | 0.097
S. pneumoniae D39V [5], first compound 0.06 µg/mL | 0.641 | 0.646 | 0.605 | – | –

O=C(O[C@@H]1Cc2c(O)cc(O)cc2O[C@@H]1c1cc(O)c(O)c(O)c1)c1cc(O)c(O)c(O)c1 [EGCG] + CN[C@H](CC(C)C)C(=O)N[C@H]1C(=O)N[C@@H](CC(N)=O)C(=O)N[C@H]2C(=O)N[C@H]3C(=O)N[C@H](C(=O)N[C@H](C(=O)O)c4cc(O)cc(O)c4-c4cc3ccc4O)[C@H](O)c3ccc(c(Cl)c3)Oc3cc2cc(c3O[C@@H]2O[C@H](CO)[C@@H](O)[C@H](O)[C@H]2O[C@H]2C[C@](C)(N)[C@H](O)[C@H](C)O2)Oc2ccc(cc2Cl)[C@H]1O [Vancomycin]
Conditions | Bliss interaction score
B. subtilis 168 | 0.0425
S. aureus DSM 20231 [3] | 0.0881
S. aureus Newman [1] | -0.0625
S. pneumoniae D39V [2] | 0.0478

fitness
Conditions | first compound 12.5 µg/mL | first compound 25 µg/mL | first compound 50 µg/mL
S. aureus DSM 20231 [6], partner 0.1875 µg/mL | 0.846 | 0.747 | 0.753
S. aureus DSM 20231 [6], partner 0.375 µg/mL | 0.842 | 0.781 | 0.836
S. aureus DSM 20231 [6], partner 0.75 µg/mL | 0.865 | 0.885 | 0.738
S. aureus Newman [4], partner 0.1875 µg/mL | 0.754 | 0.782 | –
S. aureus Newman [4], partner 0.375 µg/mL | 0.757 | 0.766 | 0.846
S. aureus Newman [4], partner 0.75 µg/mL | 0.789 | 0.776 | 0.778
S. pneumoniae D39V [5], partner 0.03125 µg/mL | 0.907 | 0.913 | 0.931
S. pneumoniae D39V [5], partner 0.0625 µg/mL | 0.887 | 0.901 | 0.959
S. pneumoniae D39V [5], partner 0.125 µg/mL | 0.889 | 0.89 | 0.948
S. pneumoniae D39V [5], partner 0.25 µg/mL | 0.317 | – | 0.397
S. pneumoniae D39V [5], partner 0.5 µg/mL | 0.0543 | 0.0794 | 0.143

O=C(O[C@@H]1Cc2c(O)cc(O)cc2O[C@@H]1c1cc(O)c(O)c(O)c1)c1cc(O)c(O)c(O)c1 [EGCG] + Cn1nnc(-c2ccc(-c3ccc(N4C[C@H](CO)OC4=O)cc3F)cn2)n1 [Tedizolid]
Conditions | Bliss interaction score
B. subtilis 168 | 0.0863
S. aureus DSM 20231 [3] | 0.11
S. aureus Newman [1] | -0.0709
S. pneumoniae D39V [2] | -0.0687

fitness
Conditions | partner 0.03125 µg/mL | partner 0.0625 µg/mL | partner 0.125 µg/mL | partner 0.25 µg/mL | partner 0.5 µg/mL
S. aureus DSM 20231 [6], first compound 12.5 µg/mL | – | 0.865 | 0.734 | 0.401 | –
S. aureus DSM 20231 [6], first compound 25 µg/mL | – | 0.762 | 0.783 | 0.569 | –
S. aureus DSM 20231 [6], first compound 50 µg/mL | – | 0.805 | 0.714 | 0.326 | –
S. aureus Newman [4], first compound 12.5 µg/mL | – | 0.735 | 0.673 | 0.329 | –
S. aureus Newman [4], first compound 25 µg/mL | – | 0.783 | 0.679 | – | –
S. aureus Newman [4], first compound 50 µg/mL | – | 0.745 | 0.653 | – | –
S. pneumoniae D39V [5], first compound 12.5 µg/mL | 0.913 | 0.925 | – | 0.308 | 0.194
S. pneumoniae D39V [5], first compound 25 µg/mL | 0.974 | 0.94 | 0.718 | 0.328 | 0.107
S. pneumoniae D39V [5], first compound 50 µg/mL | 0.993 | 0.959 | 0.791 | – | 0.262

CCCCCCCCCC(=O)N[C@H]1[C@H](Oc2c3cc4cc2Oc2ccc(cc2Cl)[C@@H](O[C@@H]2O[C@H](CO)[C@@H](O)[C@H](O)[C@H]2NC(C)=O)[C@@H]2NC(=O)[C@H](NC(=O)[C@@H]4NC(=O)[C@H]4NC(=O)[C@@H](Cc5ccc(c(Cl)c5)O3)NC(=O)[C@H](N)c3ccc(O)c(c3)Oc3cc(O)cc4c3)c3ccc(O)c(c3)-c3c(O[C@H]4O[C@H](CO)[C@@H](O)[C@H](O)[C@@H]4O)cc(O)cc3[C@@H](C(=O)O)NC2=O)O[C@H](CO)[C@@H](O)[C@@H]1O [Teicoplanin] + CN[C@H](CC(C)C)C(=O)N[C@H]1C(=O)N[C@@H](CC(N)=O)C(=O)N[C@H]2C(=O)N[C@H]3C(=O)N[C@H](C(=O)N[C@H](C(=O)O)c4cc(O)cc(O)c4-c4cc3ccc4O)[C@H](O)c3ccc(c(Cl)c3)Oc3cc2cc(c3O[C@@H]2O[C@H](CO)[C@@H](O)[C@H](O)[C@H]2O[C@H]2C[C@](C)(N)[C@H](O)[C@H](C)O2)Oc2ccc(cc2Cl)[C@H]1O [Vancomycin]
main component drawn
Conditions | Bliss interaction score
B. subtilis 168 | -0.0512
S. aureus DSM 20231 [3] | -0.0576
S. aureus Newman [1] | 0.0485
S. pneumoniae D39V [2] | 0.0981

fitness, main component drawn
Conditions | first compound 0.1562 µg/mL | first compound 0.3125 µg/mL | first compound 0.625 µg/mL
S. aureus DSM 20231 [6], partner 0.1875 µg/mL | 0.979 | ≥ 1 | ≥ 1
S. aureus DSM 20231 [6], partner 0.375 µg/mL | 0.834 | ≥ 1 | 0.956
S. aureus DSM 20231 [6], partner 0.75 µg/mL | 0.932 | ≥ 1 | 0.976
S. aureus Newman [4], partner 0.1875 µg/mL | ≥ 1 | ≥ 1 | 0.914
S. aureus Newman [4], partner 0.375 µg/mL | ≥ 1 | ≥ 1 | 0.881
S. aureus Newman [4], partner 0.75 µg/mL | 0.992 | 0.949 | 0.816

fitness, S. aureus Newman [4], one replicate, main component drawn
Conditions | first compound 0.62 µg/mL | first compound 1.24 µg/mL | first compound 2.48 µg/mL
partner 0.1875 µg/mL | 0.814 | 0.811 | 0.418
partner 0.375 µg/mL | 0.733 | 0.757 | 0.402
partner 0.75 µg/mL | 0.734 | 0.689 | 0.148
